Measured values from patent US20260060947A1 (INSTITUT PASTEUR DE MONTEVIDEO, priority 2019, published 2026).
Entries after “also recorded” stand apart in the source; their conditions may differ.

Experiments:
NLRP3 inflammasome = experiment: Inflammasome activation in THP-1 cells (LPS and ATP), IL-1β ELISA; format: cell-based, Human; conditions: 30 μM, in first or second signal (LPS and ATP), compared with vehicle
Method: The effect of BANA or BA over NF-κB-dependent gene expression was studied by qPCR using THP-1 cells. THP-1 cells were differentiated into macrophages and treated with BANA (30 μM) or BA (30 μM) for 2 hs, followed by stimulation with LPS (100 ng/mL, for 3-4 h).
For inflammasome activation, THP-1 cells were treated with LPS (as above) followed by exposure to ATP (5 mM, 45 min). IL-1β in the supernatant was then measured by ELISA (B&D OptEIA TM, San Diego, CA, USA).

SOD1^G93A rats [1] = experiment: Immunohistochemical analysis of gliosis in the ventral horn of lumbar spinal cord; format: in vivo, rat; conditions: 15 days post-paralysis
Method: After 15 days of treatment using 100 mg/kg/day of BANA, starting after paralysis onset, animals were deeply anesthetized and transcardial perfusion was performed with 0.9% saline and 4% paraformaldehyde in […] (pH 7.2-7.4). Fixed spinal cords were removed, post-fixed by PFA 4% immersion overnight, and then transverse sectioned (30 m) in a Leica cryostat. Serial sections were collected in 100 mM PBS for immunohistochemistry.
(§1) At least 4 rats were analyzed for each immunohistochemistry experiment. Three different conditions were studied as follows: 1) non-transgenic (NonTg) rats of 160-180 days; 2) transgenic SOD1^G93A rats of 195-210 days treated with vehicle (paralysis, 15 d-vehicle) and 3) transgenic SOD1^G93A rats of 195-210 days treated with 50 or 100 mg/kg/day of BANA during 15 days. After treatment animals were deeply anesthetized and transcardial perfusion was performed with paraformaldehyde 4% (v/v) in PBS pH=7.4. Fixed spinal cords were removed, post-fixed by immersion overnight in paraformaldehyde 4% (v/v) in PBS pH=7.4, and then transverse sectioned (30 m) in a Leica cryostat. Serial sections were collected in PBS pH=7.4 for immunohistochemistry.
Free-floating sections were blocked and permeabilized for 1 hour at room temperature with 0.5% Triton X-100 and 5% BSA in PBS (pH=7.4), passed through washing buffered solutions, and incubated overnight at 4° C. in a solution of 0.5% Triton X-100 and BSA 1% in PBS (pH=7.4) containing the primary antibodies: mouse anti-GFAP (G3893 1:400), rabbit anti-GFAP (Sigma #G9269 1:400), mouse anti-S1000 (Sigma #S2532 1:400), rabbit anti-Iba1 (Wako #019-19741, 1:500), rabbit anti-ChAT (Choline acetyltransferase) (Millipore, #AB143, 1:300), mouse anti-CD68 (Abcam, #ab31630, 1:300), rabbit anti-CD34 (Abcam, #ab81289, 1:200), rabbit anti-Ki67 (Abcam, #ab66155, 1:300), rabbit anti-NF-κB-p65 (Abcam, #ab16502, 1:200), rabbit anti-Ki67 (Abcam, #ab16667, 1:200), rabbit anti-ubiquitin (Millipore, #05-1307, 1:200), mouse anti-nitrotyrosine (Millipore, #05233, 1:200), anti-VGlut-1 (SySy, #135-303, 1:300), anti-synaptophysin (Abcam, #206870, 1:300), anti-0111-Tubulin (Millipore, #MAB1637, 1:200).
The inventors assessed the effect of BANA on markers of neuroinflammation in the degenerating spinal cords. SOD1^G93A rats were treated daily with BANA (100 mg/kg) or vehicle at the onset of motor symptoms. After 15 days of treatment, rats were euthanized and spinal cords were dissected for immunohistological analysis.
Experiments to assess the effect of BANA on markers of neuroinflammation in the degenerating spinal cords were conducted in rats. SOD1^G93A rats were treated with BANA (100 mg/kg/day) or vehicle at the onset of symptoms. After 15 days of treatment rats were euthanized and spinal cord was removed for histological analysis.
Microgliosis and astrogliosis were assessed by counting the expression intensity for the different markers in gray matter from the lumbar cord of non-transgenic, SOD1^G93A onset or symptomatic rats that were treated with either vehicle or BANA. The number of aberrant glial cells co-expressing the astrocytic markers GFAP and S1000 was assessed by counting the respective positive cells for both markers in gray matter from the lumbar cord of non-transgenic, SOD1^G93A onset or symptomatic rats that were treated with either vehicle or BANA. The analysis was performed in at least 10 histological sections per animal (three different rats for each condition) using the ImageJ software. Statistical studies were performed using statistical tools of GraphPad Prism 7 software. Descriptive statistics were used for each group, and Kruskal-Wallis analysis, followed by Dunn's comparison test, was used among groups. All results are presented as mean±SEM, with p<0.05 considered significant.

SOD1^G93A rats [2] = experiment: Neuromuscular junction innervation analysis in whole mounted EDL muscle; format: in vivo, rat; conditions: 100 mg/kg/day post-paralysis; vs vehicle
Method: Extensor digitorium longus (EDL) muscles from the NonTg and SOD1^G93A hind limbs were dissected. Then, tissues were blocked for 2 h at room temperature (BSA 5% v/v, Triton X-100 0.8% v/v in PBS pH=7.4), incubated with primary antibodies or fluorescent probes at 4° C. overnight: axon and post-synaptic plates were carried out using 1:1000 rabbit anti-heavy chain neurofilament-Alexa Fluor 555 (Millipore, #MAB5256A5) and fluorescently labeled a-bungarotoxin-FITC [αBTX, (Thermo Fisher Scientific, B13422)], axon presynaptic terminals were labeled with 1:300 rabbit anti-synaptophysin-Alexa Fluor 555 (Abcam, #ab206870). After washing 4 times with PBS, whole-mount muscles were mounted using DPX. Structural changes of the neuromuscular junction were scored using maximum-intensity projections of images acquired from whole-mounted muscles. Neuromuscular junction innervation analysis was performed taking into consideration those postsynaptic motor endplates occupied by a presynaptic axon terminal, where full innervation was defined as at least 80% of overlapping between pre- and postsynaptic. An average of 100 neuromuscular junctions per animal was analyzed using the ImageJ software.

NF-κB-p65 = experiment: Nuclear NF-κB-p65 in perineuronal microglia of the spinal cord; format: in vivo, rat; conditions: post-paralysis treatment for 15 days, 100 mg/kg/day
Method: FIG. 9A: Scheme of the experimental design. SOD1^G93A female rats were treated with 100 mg/kg/day of BANA or vehicle immediately after the first signs of paralysis onset of one hindlimb and continue for 15 days. Immunohistological analysis of the lumbar spinal cord of non-transgenic and vehicle- and BANA-treated SOD1^G93A symptomatic rats were performed.
FIG. 9C: Confocal images show NF-κB-p65 (green) and DAPI (red) expression in the ventral horn of the spinal cord of non-transgenic and symptomatic SOD1^G93A rats, treated with vehicle or BANA, in the surroundings of motor neurons (white dotted lines). Nuclei stained in yellow denote nuclear NF-κB-p65 and DAPI colocalization (white arrows). […] Data are expressed as mean±SEM; data were analyzed by the Kruskal-Wallis test followed by Dunn's multiple comparisons test, **p=0.0018, ***p=0.0003. n=4 animals per condition. Scale bar=20 μm.
as §1, with “Fixed spinal cords were removed, post-fixed by immersion overnight in paraformaldehyde 4% (v/v) in PBS pH=7.4, and then transverse sectioned (30 m) in a Leica cryostat. Serial sections were collected in PBS pH=7.4 for immunohistochemistry.” left out

O=C(O)c1ccc(/C=C/[N+](=O)[O-])cc1 [BANA, (E)-4-(2-nitrovinyl) benzoic acid]
release of IL-1β (NLRP3 inflammasome): almost completely prevented | astrogliosis (GFAP) (SOD1^G93A rats [1]; 50 mg/kg/day): failed to reduce | microgliosis (Iba1) (SOD1^G93A rats [1]; 50 mg/kg/day): significantly reduced | astrocytosis (GFAP staining) (SOD1^G93A rats [1]; 100 mg/kg/day, vs vehicle): significantly reduced | cell proliferation in the ventral horn (Ki67-positive nuclei) (SOD1^G93A rats [1]; 100 mg/kg/day, vs vehicle): decreased; also recorded: significantly reduced | emergence of aberrant glial cells (GFAP/S100β) in the surroundings of motor neurons (SOD1^G93A rats [1]; 100 mg/kg/day, vs vehicle): significantly reduced | microgliosis in the ventral horn (Iba1-, CD68-, CD34-positive cells) (SOD1^G93A rats [1]; 100 mg/kg/day, vs vehicle): significantly reduced | motor endplate denervation in the EDL muscle (SOD1^G93A rats [2]): significantly reduced | perineuronal microglia bearing NF-κB-p65-positive nuclei (NF-κB-p65): significant reduction
